Results reported in ChEMBL document CHEMBL1201862, “PubChem BioAssay data set” (2004).
Active and inactive are the calls of the source.

How the values were obtained:
Assay type in all cases: functional
[1] = target: T1, Corticotropin-releasing factor receptor 2/Corticotropin-releasing factor-binding protein (Homo sapiens, UniProt P24387+Q13324); assay: activators of CRF receptor 2 with binding protein – uHTS hits, confirmation (AID 602473); conditions: read-out: EC50_Mean
T1 sequence (Q13324 whole entry): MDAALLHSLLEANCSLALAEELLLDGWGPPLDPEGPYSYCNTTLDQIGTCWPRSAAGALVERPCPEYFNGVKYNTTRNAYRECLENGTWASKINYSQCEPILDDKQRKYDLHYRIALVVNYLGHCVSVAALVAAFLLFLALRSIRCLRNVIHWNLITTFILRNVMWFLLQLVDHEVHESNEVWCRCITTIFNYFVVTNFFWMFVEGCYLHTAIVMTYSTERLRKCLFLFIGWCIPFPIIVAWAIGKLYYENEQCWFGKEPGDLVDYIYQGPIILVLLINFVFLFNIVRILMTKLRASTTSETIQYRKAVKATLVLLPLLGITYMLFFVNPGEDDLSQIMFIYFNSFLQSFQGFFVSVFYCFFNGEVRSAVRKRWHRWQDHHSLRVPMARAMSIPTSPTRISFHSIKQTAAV
T1 sequence (P24387 whole entry): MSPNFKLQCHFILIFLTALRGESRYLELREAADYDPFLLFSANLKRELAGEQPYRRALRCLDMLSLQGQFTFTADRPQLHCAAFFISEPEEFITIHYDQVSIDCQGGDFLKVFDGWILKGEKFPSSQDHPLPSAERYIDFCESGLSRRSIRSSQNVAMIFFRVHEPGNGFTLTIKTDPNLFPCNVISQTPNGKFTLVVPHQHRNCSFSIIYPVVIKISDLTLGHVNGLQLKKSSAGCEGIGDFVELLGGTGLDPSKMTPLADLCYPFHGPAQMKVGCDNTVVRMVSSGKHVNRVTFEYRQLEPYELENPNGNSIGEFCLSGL

[2] = target: T2, Short transient receptor potential channel 4 (Mus musculus, UniProt Q9QUQ5); assay: calcium entry via TRPC4 opening agents – cell-based, HEK293 TRPC4/mu-opioid, Fluo-4 calcium, dose response (AID 434937)
T2 sequence (Q9QUQ5 whole entry): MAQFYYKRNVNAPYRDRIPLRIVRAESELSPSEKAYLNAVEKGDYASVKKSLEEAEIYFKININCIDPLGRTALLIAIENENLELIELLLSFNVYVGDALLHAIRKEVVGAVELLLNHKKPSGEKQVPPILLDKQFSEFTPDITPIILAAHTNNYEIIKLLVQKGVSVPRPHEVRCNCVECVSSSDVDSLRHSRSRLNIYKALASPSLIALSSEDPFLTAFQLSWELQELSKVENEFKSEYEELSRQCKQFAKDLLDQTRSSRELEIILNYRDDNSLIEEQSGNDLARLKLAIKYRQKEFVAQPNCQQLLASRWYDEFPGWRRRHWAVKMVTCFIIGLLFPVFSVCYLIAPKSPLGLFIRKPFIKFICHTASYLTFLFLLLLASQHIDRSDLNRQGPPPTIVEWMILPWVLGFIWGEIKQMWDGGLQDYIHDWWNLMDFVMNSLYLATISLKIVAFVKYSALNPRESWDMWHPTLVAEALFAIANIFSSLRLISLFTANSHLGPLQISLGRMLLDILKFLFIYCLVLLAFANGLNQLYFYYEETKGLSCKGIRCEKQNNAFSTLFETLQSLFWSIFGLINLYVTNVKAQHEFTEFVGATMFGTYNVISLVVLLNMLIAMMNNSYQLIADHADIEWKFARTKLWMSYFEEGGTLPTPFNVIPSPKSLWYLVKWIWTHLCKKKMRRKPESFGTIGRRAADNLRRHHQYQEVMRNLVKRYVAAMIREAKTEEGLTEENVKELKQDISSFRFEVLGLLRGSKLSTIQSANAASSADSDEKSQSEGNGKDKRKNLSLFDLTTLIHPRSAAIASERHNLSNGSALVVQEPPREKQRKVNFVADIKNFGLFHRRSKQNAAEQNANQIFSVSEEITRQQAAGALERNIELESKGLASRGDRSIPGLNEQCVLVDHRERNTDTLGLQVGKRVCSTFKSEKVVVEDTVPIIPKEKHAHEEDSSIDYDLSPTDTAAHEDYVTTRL

HeLa = assay: ATP-based viability loss in HeLa cells – cell-based, CellTiter-Glo luminescence, cherry-pick samples, cytotoxicity control for MITF activator project, dose response (AID 540259); conditions: Homo sapiens
[3] = target: Glucose-6-phosphate 1-dehydrogenase (Homo sapiens, UniProt P11413); assay: inhibition of Homo sapiens G6PD, dose series – biochemical, fluorescence, selectivity assay for P. falciparum G6PD inhibitor project, dose response (AID 504792)
Chain of Glucose-6-phosphate 1-dehydrogenase (P11413 whole entry, the tested form may be a part): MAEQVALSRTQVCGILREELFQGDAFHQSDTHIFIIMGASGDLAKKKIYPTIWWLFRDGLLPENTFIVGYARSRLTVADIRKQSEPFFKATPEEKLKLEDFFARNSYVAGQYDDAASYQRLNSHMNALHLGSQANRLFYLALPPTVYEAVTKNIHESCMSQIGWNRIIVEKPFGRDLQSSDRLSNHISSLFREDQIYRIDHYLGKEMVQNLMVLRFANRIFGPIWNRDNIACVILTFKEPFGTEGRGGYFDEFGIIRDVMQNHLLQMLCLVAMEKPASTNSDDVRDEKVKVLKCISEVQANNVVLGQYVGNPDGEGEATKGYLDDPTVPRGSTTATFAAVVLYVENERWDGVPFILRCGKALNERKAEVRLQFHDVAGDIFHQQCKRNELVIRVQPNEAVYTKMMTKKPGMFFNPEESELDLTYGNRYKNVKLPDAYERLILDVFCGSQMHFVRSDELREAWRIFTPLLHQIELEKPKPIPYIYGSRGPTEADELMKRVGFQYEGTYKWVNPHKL

[4] = target: T3, Carboxy-terminal domain RNA polymerase II polypeptide A small phosphatase 1 (Homo sapiens, UniProt Q9GZU7); assay: CTDSP1 inhibitors, concentration-response, biochemical, absorbance readout, ultra-high-throughput screen actives (AID 540297)
T3 sequence (Q9GZU7 whole entry): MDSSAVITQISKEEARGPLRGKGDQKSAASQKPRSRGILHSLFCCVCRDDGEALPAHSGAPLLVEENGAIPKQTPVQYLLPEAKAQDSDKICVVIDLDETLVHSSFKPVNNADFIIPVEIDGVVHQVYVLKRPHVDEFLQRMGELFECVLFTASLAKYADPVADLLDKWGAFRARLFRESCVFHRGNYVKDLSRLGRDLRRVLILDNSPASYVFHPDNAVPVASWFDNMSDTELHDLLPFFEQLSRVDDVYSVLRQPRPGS

[5] = target: T4, Endoribonuclease toxin MazF (Escherichia coli K-12, UniProt P0AE70); assay: substrate-only fluorescence increase artefacts – biochemical, single-stranded RNase substrate, counter-screen for MazEF activator project, dose response (AID 588502)
T4 sequence (P0AE70 whole entry): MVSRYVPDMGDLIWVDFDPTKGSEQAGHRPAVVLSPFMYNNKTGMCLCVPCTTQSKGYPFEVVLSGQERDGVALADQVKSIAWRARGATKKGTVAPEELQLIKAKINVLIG

Genome polyprotein = Genome polyprotein (dengue virus type 2, UniProt P29990); assay: flavivirus cap methylation enzyme inhibition – biochemical, confirmation dose response, primary screen (AID 588689)
Chain of Genome polyprotein (P29990 2492-3391 limits assumed): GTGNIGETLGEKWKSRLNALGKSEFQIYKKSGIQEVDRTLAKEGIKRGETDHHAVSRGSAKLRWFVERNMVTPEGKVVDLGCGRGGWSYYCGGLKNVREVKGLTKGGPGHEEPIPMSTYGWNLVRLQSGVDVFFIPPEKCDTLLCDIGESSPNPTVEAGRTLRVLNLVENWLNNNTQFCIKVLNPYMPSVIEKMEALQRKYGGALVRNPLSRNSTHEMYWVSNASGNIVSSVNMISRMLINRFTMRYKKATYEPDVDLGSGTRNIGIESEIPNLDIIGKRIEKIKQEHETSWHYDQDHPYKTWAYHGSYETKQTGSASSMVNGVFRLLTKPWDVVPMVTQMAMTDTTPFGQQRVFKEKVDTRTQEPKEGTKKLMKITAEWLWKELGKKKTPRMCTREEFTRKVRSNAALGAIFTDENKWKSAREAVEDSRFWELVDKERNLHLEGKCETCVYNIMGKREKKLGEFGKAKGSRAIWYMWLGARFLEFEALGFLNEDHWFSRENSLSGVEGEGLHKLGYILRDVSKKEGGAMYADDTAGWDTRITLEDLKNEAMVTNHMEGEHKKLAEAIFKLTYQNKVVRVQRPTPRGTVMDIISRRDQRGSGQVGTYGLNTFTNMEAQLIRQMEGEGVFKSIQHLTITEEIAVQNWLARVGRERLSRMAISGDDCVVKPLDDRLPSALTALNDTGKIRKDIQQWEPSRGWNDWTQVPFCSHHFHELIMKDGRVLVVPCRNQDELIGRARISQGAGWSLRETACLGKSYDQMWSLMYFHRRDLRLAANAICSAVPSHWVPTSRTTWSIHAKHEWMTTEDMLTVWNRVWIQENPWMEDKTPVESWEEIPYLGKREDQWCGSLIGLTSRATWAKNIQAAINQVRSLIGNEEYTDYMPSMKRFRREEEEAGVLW

[6] = target: T5, Sentrin-specific protease 1 (Homo sapiens, UniProt Q9P0U3); assay: Dose response confirmation of small molecule inhibitors of the catalytic domain of the SUMO protease, SENP1 in a FRET assay.; conditions: read-out: IC50_Mean
T5 sequence (Q9P0U3 whole entry): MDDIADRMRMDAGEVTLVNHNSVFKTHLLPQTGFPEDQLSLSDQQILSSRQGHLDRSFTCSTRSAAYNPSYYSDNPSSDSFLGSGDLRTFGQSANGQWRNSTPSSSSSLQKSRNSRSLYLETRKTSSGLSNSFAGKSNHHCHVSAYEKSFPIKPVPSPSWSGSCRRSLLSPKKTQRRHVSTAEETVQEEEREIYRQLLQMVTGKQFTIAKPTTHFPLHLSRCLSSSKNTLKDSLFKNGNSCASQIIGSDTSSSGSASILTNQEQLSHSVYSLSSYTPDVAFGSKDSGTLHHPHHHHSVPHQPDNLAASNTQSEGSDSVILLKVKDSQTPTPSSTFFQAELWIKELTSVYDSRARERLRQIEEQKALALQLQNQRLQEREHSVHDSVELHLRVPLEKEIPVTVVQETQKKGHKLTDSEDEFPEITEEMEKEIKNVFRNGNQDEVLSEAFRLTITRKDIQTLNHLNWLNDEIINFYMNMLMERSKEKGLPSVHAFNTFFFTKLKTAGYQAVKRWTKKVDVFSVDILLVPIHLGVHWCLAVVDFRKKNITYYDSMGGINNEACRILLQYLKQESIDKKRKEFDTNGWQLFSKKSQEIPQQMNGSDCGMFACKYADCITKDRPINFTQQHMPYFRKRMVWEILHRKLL

[7] = target: T5, Sentrin-specific protease 1; assay: SENP1 catalytic domain blockers, concentration series – biochemical, kinetic FRET, dose response (AID 651697); conditions: read-out: IC50_Mean
[8] = target: T4, Endoribonuclease toxin MazF; assay: activation of MazEF endoribonuclease cleavage – biochemical, fluorescence, single-stranded RNA substrate, uHTS hits, dose response (AID 588481)

With Cc1nc2ccccn2c1P(=S)(N1CCCCC1)N1CCCCC1 as the compound, how does the EC50 [1] read?
The EC50 was 23.7 µM (active).

And the EC50 [2]?
Its EC50 is 5.96 µM (active).

Which AC50 (HeLa) does the source give for CCCN(CCC)c1ncnc2c1cnn2-c1ccc(OC)cc1 here?
The AC50 was 46.3 µM (active).

For Cc1cc(N=NC(=O)c2ccccc2O)c2ccccc2c1O, which IC50 [3] is on record?
Its IC50 is > 80 µM (inactive).

What about the IC50 [4] of the same compound?
The IC50 was 5.15 µM (active).

With Cc1cccc(C(=O)Oc2ccc(/C=N/O)cc2)c1 as the compound, how does the AC50 (HeLa) read?
Its AC50 is 41 µM (active).

For COc1cc(/C=N/Nc2nncn2N)ccc1OCc1c(C)no[n+]1[O-], which IC50 [3] is on record?
The IC50 was 56.3 µM (inactive).

For COc1ccc(OC)c(/C=N/N(C)c2ccccc2)c1, which AC50 (HeLa) is on record?
Its AC50 is 44.7 µM (active).

With Cc1ccsc1/C=N/NC(=O)Nc1ccccc1 as the compound, how does the AC50 (HeLa) read?
The AC50 was 60.6 µM (active).

With Cn1c(=O)c2[nH]c(-c3ccccc3)c(O)c2n(C)c1=O as the compound, how does the EC50 [5] read?
Its EC50 is 23.3 µM (inactive).

And the IC50 [3]?
The IC50 was > 80 µM (inactive).

What about the IC50 (Genome polyprotein) of the same compound?
Its IC50 is 18.5 µM (active).

What about the IC50 [6] of the same compound?
Its IC50 is 5.27 µM (active).

And the EC50 [1]?
The EC50 was > 53 µM (inactive).

And the IC50 [7]?
The IC50 was 5.99 µM (active).

What about the EC50 [8] of the same compound?
Its EC50 is 33.8 µM (inactive).
